Values belong to the compound of their own block, whether it stands above or below them.
Legend:
[1] = Inhibition of TEAD (unknown origin) to YAP (unknown origin) protein-protein interaction expressed in HEK293T cells transfected with 8XGTIIC-Luciferase and CMV-betagalactosidase incubated for 24 hrs by luciferase reporter assay; format: cell-based, Homo sapiens
[2] = system: MDA-MB-231; assay: Antiproliferative activity against human MDA-MB-231 cells incubated for 72 hrs by SRB method; format: functional, cell-based; details: MDA-MB-231, 72 h
[3] = system: 4T1; assay: Antiproliferative activity against mouse 4T1 cells incubated for 72 hrs by SRB method; format: functional, cell-based; details: 4T1, 72 h
[4] = Inhibition of His-tagged TEAD1 (unknown origin) to YAP (unknown origin) protein-protein interaction preincubated for 30 mins followed by biotinylated YAP addition and measured after 60 mins by TR-FRET assay; design: species or system Homo sapiens
[5] = Inhibition of His-tagged TEAD2 (unknown origin) to YAP (unknown origin) protein-protein interaction preincubated for 30 mins followed by biotinylated YAP addition and measured after 60 mins by TR-FRET assay; design: species or system Homo sapiens
[6] = Inhibition of His-tagged TEAD3 (unknown origin) to YAP (unknown origin) protein-protein interaction preincubated for 30 mins followed by biotinylated YAP addition and measured after 60 mins by TR-FRET assay; design: species or system Homo sapiens
[7] = Inhibition of His-tagged TEAD4 (unknown origin) to YAP (unknown origin) protein-protein interaction preincubated for 30 mins followed by biotinylated YAP addition and measured after 60 mins by TR-FRET assay; design: species or system Homo sapiens
[8] = Inhibition of His-tagged TEAD1 (unknown origin) to TAZ (unknown origin) protein-protein interaction preincubated for 30 mins followed by biotinylated YAP addition and measured after 60 mins by TR-FRET assay; design: species or system Homo sapiens
[9] = Inhibition of His-tagged TEAD2 (unknown origin) to TAZ (unknown origin) protein-protein interaction preincubated for 30 mins followed by biotinylated YAP addition and measured after 60 mins by TR-FRET assay; design: species or system Homo sapiens
[10] = Inhibition of His-tagged TEAD3 (unknown origin) to TAZ (unknown origin) protein-protein interaction preincubated for 30 mins followed by biotinylated YAP addition and measured after 60 mins by TR-FRET assay; design: species or system Homo sapiens
[11] = Inhibition of His-tagged TEAD4 (unknown origin) to TAZ (unknown origin) protein-protein interaction preincubated for 30 mins followed by biotinylated YAP addition and measured after 60 mins by TR-FRET assay; design: species or system Homo sapiens
[12] = system: Transcriptional enhancer factor TEF-1-Lipid; assay: Inhibition of His-tagged TEAD1 (unknown origin) to lipid (unknown origin) interaction preincubated for 30 mins followed by biotinylated lipid addition and measured after 60 mins by TR-FRET assay; design: species or system Homo sapiens
[13] = system: Transcriptional enhancer factor TEF-4-Lipid; assay: Inhibition of His-tagged TEAD2 (unknown origin) to lipid (unknown origin) interaction preincubated for 30 mins followed by biotinylated lipid addition and measured after 60 mins by TR-FRET assay; design: species or system Homo sapiens
[14] = system: Transcriptional enhancer factor TEF-5-Lipid; assay: Inhibition of His-tagged TEAD3 (unknown origin) to lipid (unknown origin) interaction preincubated for 30 mins followed by biotinylated lipid addition and measured after 60 mins by TR-FRET assay; design: species or system Homo sapiens
[15] = system: Transcriptional enhancer factor TEF-3-Lipid; assay: Inhibition of His-tagged TEAD4 (unknown origin) to lipid (unknown origin) interaction preincubated for 30 mins followed by biotinylated lipid addition and measured after 60 mins by TR-FRET assay; design: species or system Homo sapiens
[16] = system: OVCAR-8; assay: Antiproliferative activity against human OVCAR-8 cells by CellTiter-Glo luminescent cell viability assay; format: functional, cell-based
[17] = Antiproliferative activity against human HCC1576 cells by CellTiter-Glo luminescent cell viability assay; format: functional, cell-based
[18] = Antiproliferative activity against human VMRC-LCD cells by CellTiter-Glo luminescent cell viability assay; format: functional, cell-based
[19] = system: OVCAR-8; assay: Antiproliferative activity against human OVCAR-8 cells assessed as minimum efficacy by CellTiter-Glo luminescent cell viability assay; format: functional
[20] = Antiproliferative activity against human HCC1576 cells assessed as minimum efficacy by CellTiter-Glo luminescent cell viability assay; format: functional
[21] = system: MDA-MB-231; assay: Antiproliferative activity against human MDA-MB-231 cells incubated for 96 hrs by MTT assay; format: functional, cell-based; details: MDA-MB-231, 96 h
[22] = Antiproliferative activity against human HBC5 cells incubated for 96 hrs by MTT assay; format: functional, cell-based; details: HBC5, 96 h
[23] = Antiproliferative activity against human HBC4 cells incubated for 96 hrs by MTT assay; format: functional, cell-based; details: HBC4, 96 h
[24] = Antiproliferative activity against CMT9 cells incubated for 48 hrs; format: functional; details: Canis lupus familiaris, read-out: ED50 (the source's name)
[25] = Antiproliferative activity against CMT47 cells incubated for 48 hrs; format: functional; details: Canis lupus familiaris, read-out: ED50 (the source's name)
[26] = system: NCI-H1975; assay: Antiproliferative activity against human NCI-H1975 cells incubated for 48 hrs by SRB assay; format: functional, cell-based; details: NCI-H1975, 48 h
[27] = system: Lewis lung carcinoma cell line; assay: Antiproliferative activity against mouse Lewis lung carcinoma cell line incubated for 48 hrs by SRB assay; format: functional, cell-based
[28] = system: NCI-H460; assay: Antiproliferative activity against human NCI-H460 cells incubated for 48 hrs by SRB assay; format: functional, cell-based; details: NCI-H460, 48 h
[29] = system: NCI-H2052; assay: Antiproliferative activity against human NCI-H2052 cells; format: functional, cell-based
[30] = Inhibition of TEAD (unknown origin) by YAP reporter assay; design: species or system Homo sapiens
[31] = Inhibition of cell invasion in human colorectal cancer cells; format: functional
[32] = system: C8161; assay: Antiproliferative activity against human C8161 cells incubated for 72 hrs by alamar blue staining based assay; format: functional, cell-based; details: C8161, 72 h
[33] = system: A-375; assay: Antiproliferative activity against human A-375 cells incubated for 72 hrs by alamar blue staining based assay; format: functional, cell-based; details: A-375, 72 h
[34] = system: NCI-H1975; assay: Antiproliferative activity against human NCI-H1975 cells incubated for 48 hrs by SRB method; format: functional, cell-based; details: NCI-H1975, 48 h
[35] = system: NCI-H441; assay: Antiproliferative activity against human NCI-H441 cells incubated for 48 hrs by SRB method; format: functional, cell-based; details: NCI-H441, 48 h
[36] = system: A549; assay: Antiproliferative activity against human A549 cells incubated for 48 hrs by SRB method; format: functional, cell-based; details: A549, 48 h

IC50 [1]: 6500 nM
Compound: Nc1nonc1-n1nnc(C(=O)N/N=C2\C(=O)Nc3ccccc32)c1-c1ccc(Cl)c(Cl)c1

Compound: O=c1cc(-c2ccc(O)c(O)c2)oc2cc(O)cc(O)c12 [LUTEOLIN]
IC50 [2]: 19200 nM | IC50 [3]: 6980 nM

IC50 [4]: 40 nM | IC50 [5]: 10 nM | IC50 [6]: 110 nM | IC50 [7]: 50 nM | IC50 [8]: 40 nM | IC50 [9]: 10 nM | IC50 [10]: 60 nM | IC50 [11]: 30 nM | IC50 [12]: 50 nM | IC50 [13]: 20 nM | IC50 [14]: 40 nM | IC50 [15]: > 20 nM | EC50 [16]: 200 nM
Compound: O=C(c1c(-c2cnccn2)nn2c(=O)cc(-c3ccc(C4CCCCC4)cc3)[nH]c12)N1CC(CF)C1
EC50 [17]: 190 nM | EC50 [18]: > 50000 nM | Emin [19]: 84% | Emin [20]: 67%

Compound: CC(C)n1c(/C=C/[C@H](O)C[C@H](O)CC(=O)O)c(-c2ccc(F)cc2)c2ccccc21
IC50 [21]: < 10000 nM | IC50 [22]: < 10000 nM | IC50 [23]: < 10000 nM | EC50 [24]: 9950 nM | EC50 [25]: 950 nM

IC50 [26]: 4020 nM | IC50 [27]: 11000 nM | IC50 [28]: 16100 nM
Compound: C[C@H]1[C@H](OC(=O)CCC(=O)O)O[C@@H]2O[C@@]3(C)CC[C@H]4[C@H](C)CC[C@@H]1[C@@]24OO3 [ARTESUNATE]

IC50 [1]: 1700 nM
Compound: COc1ccc2c(c1)/C(=N/NC(=O)c1nnn(-c3ccccc3N)c1-c1ccc(Cl)c(Cl)c1)C(=O)N2

IC50 [29]: > 3000 nM | IC50 [30]: 458 nM
Compound: COC(=O)c1cc(S(N)(=O)=O)ccc1NC1CCCCC1

Compound: N#Cc1ccc2[nH]cc(CCCCN3CCN(c4ccc5oc(C(N)=O)cc5c4)CC3)c2c1 [VILAZODONE]
inhibition (INH) [31]: 36%

Compound: CC(C)[C@]12O[C@H]1[C@@H]1O[C@@]13[C@@]1(C)CCC4=C(COC4=O)[C@@H]1C[C@@H]1O[C@@]13C2=O [TRIPTONIDE]
IC50 [32]: 5.56 nM | IC50 [33]: 16.2 nM

Compound: Cc1cc2c(C(C)C)c(O)c(O)c(C=O)c2c(O)c1-c1c(C)cc2c(C(C)C)c(O)c(O)c(C=O)c2c1O
IC50 [34]: 6770 nM | IC50 [35]: 19900 nM | IC50 [36]: 10000 nM

IC50 [29]: 2030 nM | IC50 [30]: 391 nM
Compound: CC(NC(=O)c1cc2nc(N(C)C)n(-c3ccc(Br)cc3)c2s1)c1ccccn1 (centres undefined)

Reference: ChEMBL document CHEMBL6071129, “Strategies that regulate Hippo signaling pathway for novel anticancer therapeutics” (Eur J Med Chem, 2024)
